According to patent US20080026996A1, “Selective Vpac2 Receptor Reptide Agonists” (ELI LILLY AND COMPANY, priority 2004, published 2008):
Where a SMILES comes first, the peptide text is derived from it. Where no end group is shown, it is not given here. [ ]: non-standard residue; d: D form. The star is where a group is joined. hArg = N=C(N)NCCCC[C@H](N)C(=O)O; Hexanoyl = CCCCCC(=O)*; Aib = CC(C)(N)C(=O)O

Experiments:
human VPAC2 [1] = target: T1, human VPAC2 (Homo sapiens, UniProt P41587); assay: Alpha screen cAMP in vitro potency, human VPAC2 receptor; type: cell-based; conditions: cAMP generation; single result from two analyses performed in a single run; read-out: Human VPAC2 Receptor: Alpha Screen EC50
T1 construct: expressed in transfected cells
T1 sequence (P41587 24-438): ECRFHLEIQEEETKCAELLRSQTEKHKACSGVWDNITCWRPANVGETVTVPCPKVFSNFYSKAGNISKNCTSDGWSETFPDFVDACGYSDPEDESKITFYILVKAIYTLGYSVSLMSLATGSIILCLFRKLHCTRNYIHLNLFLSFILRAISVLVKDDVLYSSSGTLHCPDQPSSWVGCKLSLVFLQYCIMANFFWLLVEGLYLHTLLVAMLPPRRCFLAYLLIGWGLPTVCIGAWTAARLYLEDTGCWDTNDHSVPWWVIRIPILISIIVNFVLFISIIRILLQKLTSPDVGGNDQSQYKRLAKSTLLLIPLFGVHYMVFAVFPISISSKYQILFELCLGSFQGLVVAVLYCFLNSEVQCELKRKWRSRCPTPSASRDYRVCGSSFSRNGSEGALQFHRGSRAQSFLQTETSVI
Procedure, shortened: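 Under reduced light, acceptor beads accompany the stimuli during a 60-minute incubation of cells in stimulation buffer (50,000 per well point). Donor beads go in with lysis buffer for a further 60–120 minutes, and the resulting AlphaScreen signal indicates cAMP levels.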

human VPAC2 [2] = target: T1, human VPAC2; assay: Filter binding assay, membranes of stable VPAC2 cell line, 125I-labeled VIP tracer (Table 2); conditions: read-out: Human VPAC2 Receptor Binding
Procedure, shortened: (§1)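 Scintillation counting of filter-retained radioligand gave the read-out. Compounds competed with the labelled tracer (about 40000 cpm) for 2.5 μg membranes during 1 hour of shaking in HEPES pH 7.4 buffer containing 0.5% BSA.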

[3] = Rat serum stability studies (remaining active peptide by DiscoveRx cAMP on CHO-VPAC2 cells); type: in vitro ADME
Experimental: Store the aliquot with aprotinin at 4° C. Store the aliquot without aprotinin at 37° C. […] […] Incubate in room temperature for 30 minutes. Remove the supernatant. […] Incubate on the shaker (300 rpm) for 1 hour. Proceed as normal with the DiscoveRx kit. Include cAMP standards in column 12. Determine EC50 values from the cAMP assay data.

human VPAC1 = target: T2, human VPAC1 (Homo sapiens, UniProt P32241); assay: Filter binding assay, membranes of cells transiently transfected with human VPAC1, 125I-labeled VIP tracer (Table 2); parameters: expressed in transfected cells; conditions: read-out: Human VPAC1 Receptor Binding
T2 sequence (P32241 31-457): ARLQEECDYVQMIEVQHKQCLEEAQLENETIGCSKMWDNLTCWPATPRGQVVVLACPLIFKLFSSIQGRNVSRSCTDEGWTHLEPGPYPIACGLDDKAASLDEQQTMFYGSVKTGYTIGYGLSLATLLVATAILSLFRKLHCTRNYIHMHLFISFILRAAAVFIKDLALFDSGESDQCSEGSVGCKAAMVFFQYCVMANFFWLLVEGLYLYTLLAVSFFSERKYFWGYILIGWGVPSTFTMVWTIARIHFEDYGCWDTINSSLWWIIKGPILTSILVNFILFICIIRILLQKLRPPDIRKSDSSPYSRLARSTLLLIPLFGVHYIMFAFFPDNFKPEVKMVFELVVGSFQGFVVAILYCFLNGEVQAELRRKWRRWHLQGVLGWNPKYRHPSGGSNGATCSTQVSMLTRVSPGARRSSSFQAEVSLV
Procedure, shortened: as §1

Compound	EC50 (human VPAC2 [1])	IC50 (human VPAC2 [2])	Rat Serum Stability (estimated purity in % after 18 hours) [3]	IC50 (human VPAC1)
CCCCCC(=O)N[C@@H](Cc1c[nH]cn1)C(=O)N[C@@H](CO)C(=O)N[C@@H](CC(=O)O)C(=O)N[C@@H](C)C(=O)N[C@H](C(=O)N[C@@H](Cc1ccccc1)C(=O)N[C@H](C(=O)N[C@@H](CC(=O)O)C(=O)N[C@@H](CC(N)=O)C(=O)N[C@@H](Cc1ccc(O)cc1)C(=O)N[C@H](C(=O)N[C@@H](CCCNC(=N)N)C(=O)N[C@@H](CC(C)C)C(=O)N[C@@H](CCCNC(=N)N)C(=O)N[C@@H](CCCCN)C(=O)N[C@@H](CCC(N)=O)C(=O)N[C@H](C(=O)N[C@@H](C)C(=O)N[C@@H](C)C(=O)N[C@@H](CCCNC(=N)N)C(=O)N[C@@H](CCCNC(=N)N)C(=O)N[C@@H](Cc1ccc(O)cc1)C(=O)N[C@@H](CC(C)C)C(=O)N[C@@H](CCC(N)=O)C(=O)N[C@@H](CO)C(=O)N[C@H](C(=O)N[C@@H](CCCNC(=N)N)C(=O)N[C@@H](CC(N)=O)C(=O)NCC(=O)NCC(=O)N1CCC[C@H]1C(=O)N[C@@H](CO)C(=O)N[C@@H](CO)C(=O)NCC(=O)N[C@@H](C)C(=O)N1CCC[C@H]1C(=O)N1CCC[C@H]1C(=O)N1CCC[C@H]1C(=O)N[C@@H](CO)C(=O)O)[C@@H](C)CC)C(C)C)[C@@H](C)O)[C@@H](C)O)C(C)C [Agonist P214] (Hexanoyl-HSDAVFTDNYTRLRKQVAARRYLQSIRNGGPSSGAPPPS-OH; C-terminus assumed)	0.16 nM	0.19 nM	0.07%	14.5 nM
Hexanoyl-HSDAVFTENYTRLRKQVAAKKYLQSIKNKRYGGPSSGAPPPS [Agonist P159]	0.17 nM	0.17 nM	0.15%	131 nM
Hexanoyl-HSDAVFTDNYTRLLAKLAAQKYLQSIKNKRYGGPSSGAPPPS [Agonist P197]	0.09 nM	0.31 nM	5.68%	447 nM
CCCCCC(=O)N[C@@H](Cc1c[nH]cn1)C(=O)N[C@@H](CO)C(=O)N[C@@H](CC(=O)O)C(=O)N[C@@H](C)C(=O)N[C@H](C(=O)N[C@@H](Cc1ccccc1)C(=O)N[C@H](C(=O)N[C@@H](CC(=O)O)C(=O)N[C@@H](CC(N)=O)C(=O)N[C@@H](Cc1ccc(O)cc1)C(=O)N[C@H](C(=O)N[C@@H](CCCNC(=N)N)C(=O)N[C@@H](CC(C)C)C(=O)N[C@@H](CCCNC(=N)N)C(=O)N[C@@H](CCCCN)C(=O)N[C@@H](CCC(N)=O)C(=O)N[C@H](C(=O)N[C@@H](C)C(=O)N[C@@H](C)C(=O)N[C@@H](CCCCN)C(=O)N[C@@H](CCCNC(=N)N)C(=O)N[C@@H](Cc1ccc(O)cc1)C(=O)N[C@@H](CC(C)C)C(=O)N[C@@H](CCC(N)=O)C(=O)N[C@@H](CO)C(=O)N[C@H](C(=O)N[C@@H](CCCNC(=N)N)C(=O)N[C@@H](CC(N)=O)C(=O)NCC(=O)NCC(=O)N1CCC[C@H]1C(=O)N[C@@H](CO)C(=O)N[C@@H](CO)C(=O)NCC(=O)N[C@@H](C)C(=O)N1CCC[C@H]1C(=O)N1CCC[C@H]1C(=O)N1CCC[C@H]1C(=O)N[C@@H](CO)C(=O)O)[C@@H](C)CC)C(C)C)[C@@H](C)O)[C@@H](C)O)C(C)C [Agonist P213] (Hexanoyl-HSDAVFTDNYTRLRKQVAAKRYLQSIRNGGPSSGAPPPS-OH; C-terminus assumed)	0.24 nM	0.27 nM	0.04%	32.2 nM
Hexanoyl-HSD[dA]VFTDNYTRLRKQVAAKKYLQSIKNKRYGGPSSGAPPPS [Agonist P207]	0.86 nM	0.81 nM	<0.29%	282 nM
Hexanoyl-HSDAVFTDNYTRLRKQVAAKLYLQSIKNKRYGGPSSGAPPPS [Agonist P185]	0.18 nM	0.41 nM	0.27%	358 nM
Hexanoyl-HSDAVFTDNYTRLR[Aib]QVAA[Aib]AYLQSIKNKRYGGPSSGAPPPS [Agonist P341]	0.38 nM	2.39 nM	12.82%	> 3000 nM
Hexanoyl-HSDAVFTANYTRLRKQVAAKKYLQSIKNKRYGGPSSGAPPPS [Agonist P158]	0.11 nM	0.21 nM	0.32%	25.7 nM
Hexanoyl-HSDA[Aib]FTDNYTRLRKQVAAKKYLQSIKNKRYGGPSSGAPPPS [Agonist P212]	0.12 nM	0.19 nM	0.21%	198 nM
Hexanoyl-HSDAVFTDNYTRL[hArg][Aib]QVAA[Aib]KYLQSIKNKRYGGPSSGAPPPS [Agonist P316]	0.3 nM	0.38 nM	15.06%	> 3000 nM
Hexanoyl-HSDAVFTDNYTRLRKQVAAKKYLQSIKNKRFGGPSSGAPPPS [Agonist P203]	0.14 nM	0.18 nM	<0.09%	
CCCCCC(=O)N[C@@H](Cc1c[nH]cn1)C(=O)N[C@@H](CO)C(=O)N[C@@H](CC(=O)O)C(=O)N[C@@H](C)C(=O)N[C@H](C(=O)N[C@@H](Cc1ccccc1)C(=O)N[C@H](C(=O)N[C@@H](CC(=O)O)C(=O)N[C@@H](CC(N)=O)C(=O)N[C@@H](Cc1ccc(O)cc1)C(=O)N[C@H](C(=O)N[C@@H](CCCNC(=N)N)C(=O)N[C@@H](CC(C)C)C(=O)N[C@@H](CCCNC(=N)N)C(=O)NC(C)(C)C(=O)N[C@@H](CCC(N)=O)C(=O)N[C@H](C(=O)N[C@@H](C)C(=O)N[C@@H](C)C(=O)NC(C)(C)C(=O)N[C@@H](CCCCN)C(=O)N[C@@H](Cc1ccc(O)cc1)C(=O)N[C@@H](CC(C)C)C(=O)N[C@@H](CCC(N)=O)C(=O)N[C@@H](CO)C(=O)N[C@H](C(=O)N[C@@H](CCCCN)C(=O)N[C@@H](CCCCN)C(=O)NCC(=O)NCC(=O)N1CCC[C@H]1C(=O)N[C@@H](CO)C(=O)N[C@@H](CO)C(=O)NCC(=O)N[C@@H](C)C(=O)N1CCC[C@H]1C(=O)N1CCC[C@H]1C(=O)N1CCC[C@H]1C(=O)N[C@@H](CO)C(=O)O)[C@@H](C)CC)C(C)C)[C@@H](C)O)[C@@H](C)O)C(C)C [Agonist P351]	0.11 nM		18.52%	
Hexanoyl-HSDAVFTDNYTRLRKQVAAKKYTQSIKNKRYGGPSSGAPPPS [Agonist P232]	1.94 nM		<5.00%	
CCCCCC(=O)N[C@@H](Cc1c[nH]cn1)C(=O)N[C@@H](CO)C(=O)N[C@@H](CC(=O)O)C(=O)N[C@@H](C)C(=O)N[C@H](C(=O)N[C@@H](Cc1ccccc1)C(=O)N[C@H](C(=O)N[C@@H](CC(=O)O)C(=O)N[C@@H](CC(N)=O)C(=O)N[C@@H](Cc1ccc(O)cc1)C(=O)N[C@H](C(=O)N[C@@H](C)C(=O)N[C@@H](CC(C)C)C(=O)N[C@@H](CCCNC(=N)N)C(=O)NC(C)(C)C(=O)N[C@@H](CCC(N)=O)C(=O)N[C@H](C(=O)N[C@@H](C)C(=O)N[C@@H](C)C(=O)NC(C)(C)C(=O)N[C@@H](CCCCN)C(=O)N[C@@H](Cc1ccc(O)cc1)C(=O)N[C@@H](CC(C)C)C(=O)N[C@@H](CCC(N)=O)C(=O)N[C@@H](CO)C(=O)N[C@H](C(=O)N[C@@H](CCCN)C(=O)N[C@@H](CC(N)=O)C(=O)N[C@@H](CCCN)C(=O)NCC(=O)NCC(=O)N1CCC[C@H]1C(=O)N[C@@H](CO)C(=O)N[C@@H](CO)C(=O)NCC(=O)N[C@@H](C)C(=O)N1CCC[C@H]1C(=O)N1CCC[C@H]1C(=O)N1CCC[C@H]1C(=O)N[C@@H](CO)C(=O)O)[C@@H](C)CC)C(C)C)[C@@H](C)O)[C@@H](C)O)C(C)C [Agonist P366]	2.6 nM		92.00%	
